Measured values: patent publication US8013006B2
pIC50: −log10 of the molar value.

Experiments:
HCV replicon = test: microbe, parasite or virus in culture; type: cell-based; conditions: Hepatitis C virus, 48 h, read-out: Replicon IC5Os

SMILES | pIC50 (HCV replicon) | melting point [°C]
CCCS(=O)(=O)Nc1ccc(-c2c(C#N)c3cc(Cl)ccc3n2CC)cc1 [Compound 601] | > 6.30 | 195 to 200
CCn1c(-c2ccc(NS(=O)(=O)C3CC3)cc2)c(C#N)c2cc(Cl)ccc21 [Compound 602] | > 6.30 | 179 to 184
CCCOC(=O)Nc1cccc(-c2c(C#N)c3cc(N4CCOCC4)ccc3n2CC)c1 [Compound 606] | > 6.30 | 166 to 170
CCn1c(-c2cccc(NC(=O)OCCOC)c2)c(C#N)c2cc(N3CCOCC3)ccc21 [Compound 607] | > 6.30 | 189 to 194
COc1ccc2c(C#N)c(-c3ccc(NS(C)(=O)=O)cc3)n(CC3CC3)c2c1 [Compound 611] | 5.70 to 6.30 | 126 to 128
CCS(=O)(=O)Nc1ccc(-c2c(C#N)c3ccc(OC)cc3n2CC2CC2)cc1 [Compound 612] | 5.70 to 6.30 | 198 to 200
CS(=O)(=O)Nc1ccc(-c2c(C#N)c3ccc(OC(F)F)cc3n2CC2CC2)cc1 [Compound 613] | > 6.30 | 198 to 200
CCS(=O)(=O)Nc1ccc(-c2c(C#N)c3ccc(OC(F)F)cc3n2CC2CC2)cc1 [Compound 614] | > 6.30 | 176 to 177
CCCCS(=O)(=O)Nc1ccc(-c2c(C#N)c3cc(Cl)ccc3n2CC)cc1 [Compound 616] | > 6.30 | 143 to 149
CCn1c(-c2ccc(NS(=O)(=O)CCCCl)cc2)c(C#N)c2cc(Cl)ccc21 [Compound 617] | > 6.30 | 164 to 167
CCOC(=O)Nc1ccc(-c2c(C#N)c3cc(Cl)ccc3n2CC)cc1 [Compound 618] | > 6.30 | 205 to 211
CCCOC(=O)Nc1ccc(-c2c(C#N)c3cc(Cl)ccc3n2CC)cc1 [Compound 619] | 5.70 to 6.30 | 201 to 206
CCCn1c(-c2ccc(NS(=O)(=O)CCC)cc2)c(C#N)c2ccc(OC)cc21 [Compound 621] | 5.70 to 6.30 | 187 to 188
CCCn1c(-c2ccc(NS(=O)(=O)C(C)C)cc2)c(C#N)c2ccc(OC)cc21 [Compound 622] | 5.70 to 6.30 | 182 to 183
CCCn1c(-c2ccc(NS(=O)(=O)Cc3ccccc3)cc2)c(C#N)c2ccc(OC)cc21 [Compound 623] | 5.70 to 6.30 | 217 to 218
CCCn1c(-c2ccc(NC(=O)NCC)cc2)c(C#N)c2ccc(OC)cc21 [Compound 626] | 5.70 to 6.30 | 193 to 194

SMILES | pIC50 (HCV replicon) | melting point [°C]
CCCNC(=O)Nc1ccc(-c2c(C#N)c3cc(Cl)ccc3n2CC)cc1 [Compound 628] | 5.70 to 6.30 | 221 to 226
CCS(=O)(=O)Nc1ccc(-c2c(C#N)c3cc(Cl)ccc3n2CCC(C)C)cc1 [Compound 631] | 5.70 to 6.30 | 177 to 182
C=Cn1c(-c2ccc(NS(=O)(=O)CC)cc2)c(C#N)c2ccc(OC)cc21 [Compound 633] | 5.70 to 6.30 | 159 to 161
C=Cn1c(-c2ccc(NS(=O)(=O)C3CC3)cc2)c(C#N)c2ccc(OC)cc21 [Compound 635] | > 6.30 | 200 to 201
CCCn1c(-c2ccc(NC(=O)OC(C)C)cc2)c(C#N)c2ccc(OC)cc21 [Compound 641] | 5.70 to 6.30 | 177 to 178
CCn1c(-c2ccc(CNS(C)(=O)=O)cc2)c(C#N)c2ccc(OC)cc21 [Compound 650] | 5.70 to 6.30 | 165 to 166
CCn1c(-c2ccc(N(C)S(=O)(=O)CCl)cc2)c(C#N)c2ccc(OC)cc21 [Compound 652] | > 6.30 | 191 to 194
CCCOc1ccc2c(C#N)c(-c3ccc(N4CCCS4(=O)=O)cc3)n(CC)c2c1 [Compound 667] | > 6.30 | 242 to 244
CCn1c(-c2ccc(NS(=O)(=O)CC)cc2)c(C#N)c2ccc(OCc3cccnc3)cc21 [Compound 669] | > 6.30 | 213 to 215
CCn1c(-c2ccc(NS(=O)(=O)C3CC3)cc2)c(C#N)c2ccc(OCc3cccnc3)cc21 [Compound 670] | > 6.30 | 231 to 233
CCn1c(-c2ccc(NS(=O)(=O)CC)cc2)c(C#N)c2ccc(OCc3ccccn3)cc21 [Compound 671] | > 6.30 | 221 to 222
CCOC(=O)Nc1ccc(-c2c(C#N)c3ccc(OC)cc3n2CCOC)cc1 [Compound 676] | 5.70 to 6.30 | 174 to 175
CCCOC(=O)Nc1ccc(-c2c(C#N)c3ccc(OC)cc3n2CCOC)cc1 [Compound 677] | 5.70 to 6.30 | 133 to 134
CCNC(=O)N1CCc2cc(-c3c(C#N)c4ccc(OC)cc4n3CC)ccc21 [Compound 679] | 5.70 to 6.30 | 212 to 220
CCCNC(=O)N1CCc2cc(-c3c(C#N)c4ccc(OC)cc4n3CC)ccc21 [Compound 680] | > 6.30 | 163 to 168
